Measurements taken from patent publication US10590143B2, “Herbicidally active (alkynyl-phenyl)-substituted cyclic dione compounds and derivatives thereof” (Syngenta Limited, priority 2013, dated 2020).

Experiments:
Assay in all cases: Biological Example 2 glasshouse assay for herbicidal activity
Format in all cases: in vivo
[1] = test system: Alopecurus myosuroides (ALOMY); settings: post-emergence, 360 h, 14 or 15 DAA, 0.2% v/v X-77, read-out: percentage phytotoxicity ALOMY
Method: (§1) Seeds of a variety of monocotyledonous and dicotyledonous test plants are sown in standard soil in pots. The plants are cultivated for one day (for pre-emergence) or for about 12 days (range=10-13 days) (for post-emergence) under controlled conditions in a glasshouse (warm climate species at 24/18° C., cool climate species at 20/16° C., both at day/night; 16 hours light; 65% humidity).
(§2) An “instant formulation”, known as the “IF50”, containing 50 g/litre (i.e. 5% w/v) of the “technical” (i.e. unformulated) active ingredient is prepared by dissolving the active ingredient in a mixture of organic solvents and emulsifier, details of which are provided in the Table below. This IF50 is then mixed with a small, variable amount of acetone to aid dissolution, before addition of a 0.2% v/v aqueous solution of the adjuvant X-77 (which is a mixture of alkyl aryl polyoxyethylene glycols and free fatty acids in isopropanol, CAS Registry number 11097-66-8), as the aqueous diluent, to form an aqueous spray solution which contains a predetermined concentration of the active ingredient (which varies depending on the application rate of the active ingredient to the plants) and 0.2% v/v of the adjuvant X-77. This aqueous spray solution is then sprayed onto the plants, after one day's cultivation (for pre-emergence) or after about 12 days' cultivation (for post-emergence).
(§3) The test plants are then grown on, in a glasshouse (greenhouse) under controlled conditions (at either 24/18° C. or 20/16° C. (day/night) as mentioned above; 16 hours light; 65% humidity) and are watered twice daily. Either 14 or 15 days after application of the herbicide (14 or 15 DAA) (for post-emergence), or 20 days after application of the herbicide (20 DAA) (for pre-emergence), the test plants are evaluated visually, and an assessed percentage phytotoxicity score is given for each herbicidal application on each plant species (where 100%=total damage to plant; 0%=no damage to plant).
(§4) Some of the typical test plants are as follows: • Cool climate crop plants: Triticum aestivum (TRZAW, winter wheat), Brassica napus (BRSNN, rape, also called oilseed rape or rapeseed), Beta vulgaris (BEAVA, sugarbeet). • Warm climate crop plants: Glycine max (GLXMA, soybean). • Cool climate (“cool season”) grassy monocotyledonous weeds: Alopecurus myosuroides (ALOMY), Avena fatua (AVEFA), Lolium perenne (LOLPE), Poa annua (POAAN), Bromus tectorum (BROTE). • Warm climate (“warm season”) grassy monocotyledonous weeds: Setaria faberi (SETFA), SORVU (Sorghum bicolor (L.) Moench ssp. Bicolor, or Sorghum vulgare Pers.), Digitaria sanguinalis (DIGSA), Echinochloa crus-galli (ECHCG), Brachiaria plantaginea (BRAPL); Zea mays (ZEAMX, corn, maize, e.g. volunteer corn).

[2] = test system: Avena fatua (AVEFA); settings: post-emergence, 360 h, 14 or 15 DAA, 0.2% v/v X-77, read-out: percentage phytotoxicity AVEFA
Method: as §1, §2, §3, §4

[3] = test system: Beta vulgaris (BEAVA, sugarbeet); settings: post-emergence, 360 h, 14 or 15 DAA, 0.2% v/v X-77, read-out: percentage phytotoxicity BEAVA
Method: as §1, §2, §3, §4

[4] = test system: Brachiaria plantaginea (BRAPL); settings: Urochloa plantaginea, post-emergence, 360 h, 14 or 15 DAA, 0.2% v/v X-77, read-out: percentage phytotoxicity BRAPL
Method: as §1, §2, §3, §4

[5] = test system: Brassica napus (BRSNN, rape); settings: Brassica napus, 360 h, post-emergence, 14 or 15 DAA, 0.2% v/v X-77, read-out: percentage phytotoxicity BRSNN
Method: as §1, §2, §3, §4

[6] = test system: Digitaria sanguinalis (DIGSA); settings: post-emergence, 360 h, 14 or 15 DAA, 0.2% v/v X-77, read-out: percentage phytotoxicity DIGSA
Method: as §1, §2, §3, §4

[7] = test system: Echinochloa crus-galli (ECHCG); settings: Echinochloa crus-galli, post-emergence, 360 h, 14 or 15 DAA, 0.2% v/v X-77, read-out: percentage phytotoxicity ECHCG
Method: as §1, §2, §3, §4

[8] = test system: Glycine max (GLXMA, soybean); settings: post-emergence, 360 h, 14 or 15 DAA, 0.2% v/v X-77, read-out: percentage phytotoxicity GLXMA
Method: as §1, §2, §3, §4

[9] = test system: Lolium perenne (LOLPE); settings: Lolium perenne, post-emergence, 360 h, 14 or 15 DAA, 0.2% v/v X-77, read-out: percentage phytotoxicity LOLPE
Method: as §1, §2, §3, §4

[10] = test system: SORVU (Sorghum bicolor (L.) Moench ssp. Bicolor, or Sorghum vulgare Pers.); settings: post-emergence, 360 h, 14 or 15 DAA, 0.2% v/v X-77, read-out: percentage phytotoxicity SORVU
Method: as §1, §2, §3, §4

[11] = test system: Setaria faberi (SETFA); settings: post-emergence, 360 h, 14 or 15 DAA, 0.2% v/v X-77, read-out: percentage phytotoxicity SETFA
Method: as §1, §2, §3, §4

[12] = test system: Triticum aestivum (TRZAW, winter wheat); settings: post-emergence, 360 h, 14 or 15 DAA, 0.2% v/v X-77, read-out: percentage phytotoxicity TRZAW
Method: as §1, §2, §3, §4

[13] = test system: Zea mays (ZEAMX, corn, maize, e.g. volunteer corn); settings: Zea mays, post-emergence, 360 h, 14 or 15 DAA, 0.2% v/v X-77, read-out: percentage phytotoxicity ZEAMX
Method: as §1, §2, §3, §4

CC#Cc1cc(F)c(C2=C(OC(=O)C(C)(C)C)C3CCC(C3)C2=O)c(OC)c1 (stereo not shown) [Compound P1]
pest or weed control at 30 g/ha [1]: 80% | pest or weed control at 250 g/ha [1]: 90% | pest or weed control at 30 g/ha [2]: 80% | pest or weed control at 250 g/ha [2]: 90% | plant injury at 30 g/ha [3]: 0% | plant injury at 250 g/ha [3]: 0% | pest or weed control at 30 g/ha [4]: 100% | pest or weed control at 250 g/ha [4]: 90% | plant injury at 30 g/ha [5]: 10% | plant injury at 250 g/ha [5]: 80% | pest or weed control at 30 g/ha [6]: 90% | pest or weed control at 250 g/ha [6]: 100% | pest or weed control at 30 g/ha [7]: 100% | pest or weed control at 250 g/ha [7]: 100% | plant injury at 30 g/ha [8]: 0% | plant injury at 250 g/ha [8]: 20% | pest or weed control at 30 g/ha [9]: 100% | pest or weed control at 250 g/ha [9]: 100% | pest or weed control at 30 g/ha [10]: 100% | pest or weed control at 250 g/ha [10]: 100% | pest or weed control at 30 g/ha [11]: 80% | pest or weed control at 250 g/ha [11]: 90% | plant injury at 30 g/ha [12]: 60% | plant injury at 250 g/ha [12]: 90% | pest or weed control at 30 g/ha [13]: 100% | pest or weed control at 250 g/ha [13]: 100%

CC#Cc1cc(F)c(C2=C(OC(=O)OC(C)C)C3CCC(C3)C2=O)c(OC)c1 (stereo not shown) [Compound P3]
pest or weed control at 30 g/ha [1]: 70% | pest or weed control at 250 g/ha [1]: 90% | pest or weed control at 30 g/ha [2]: 90% | pest or weed control at 250 g/ha [2]: 90% | plant injury at 30 g/ha [3]: 0% | plant injury at 250 g/ha [3]: 0% | pest or weed control at 30 g/ha [4]: 100% | pest or weed control at 250 g/ha [4]: 100% | plant injury at 30 g/ha [5]: 10% | plant injury at 250 g/ha [5]: 80% | pest or weed control at 30 g/ha [6]: 100% | pest or weed control at 250 g/ha [6]: 100% | pest or weed control at 30 g/ha [7]: 100% | pest or weed control at 250 g/ha [7]: 100% | plant injury at 30 g/ha [8]: 0% | plant injury at 250 g/ha [8]: 0% | pest or weed control at 30 g/ha [9]: 90% | pest or weed control at 250 g/ha [9]: 100% | pest or weed control at 30 g/ha [10]: 100% | pest or weed control at 250 g/ha [10]: 100% | pest or weed control at 30 g/ha [11]: 100% | pest or weed control at 250 g/ha [11]: 100% | plant injury at 30 g/ha [12]: 80% | plant injury at 250 g/ha [12]: 90% | pest or weed control at 30 g/ha [13]: 100% | pest or weed control at 250 g/ha [13]: 100%

CC#Cc1cc(F)c(C2=C(OC(=O)SCC)C3CCC(C3)C2=O)c(OC)c1 (stereo not shown) [Compound P4]
pest or weed control at 30 g/ha [1]: 80% | pest or weed control at 250 g/ha [1]: 100% | pest or weed control at 30 g/ha [2]: 90% | pest or weed control at 250 g/ha [2]: 100% | plant injury at 30 g/ha [3]: 0% | plant injury at 250 g/ha [3]: 0% | pest or weed control at 30 g/ha [4]: 100% | pest or weed control at 250 g/ha [4]: 100% | plant injury at 30 g/ha [5]: 50% | plant injury at 250 g/ha [5]: 80% | pest or weed control at 30 g/ha [6]: 80% | pest or weed control at 250 g/ha [6]: 100% | pest or weed control at 30 g/ha [7]: 90% | pest or weed control at 250 g/ha [7]: 100% | plant injury at 30 g/ha [8]: 10% | plant injury at 250 g/ha [8]: 20% | pest or weed control at 30 g/ha [9]: 90% | pest or weed control at 250 g/ha [9]: 100% | pest or weed control at 30 g/ha [10]: 100% | pest or weed control at 250 g/ha [10]: 100% | pest or weed control at 30 g/ha [11]: 90% | pest or weed control at 250 g/ha [11]: 100% | plant injury at 30 g/ha [12]: 80% | plant injury at 250 g/ha [12]: 100% | pest or weed control at 30 g/ha [13]: 100% | pest or weed control at 250 g/ha [13]: 100%

CC#Cc1cc(F)c(C2=C(OC(=O)c3ccccc3)C3CCC(C3)C2=O)c(OC)c1 (stereo not shown) [Compound P5, [3-(2-fluoro-6-methoxy-4-prop-1-ynyl-phenyl)-4-oxo-2-bicyclo[3.2.1]oct-2-enyl]benzoate]
pest or weed control at 30 g/ha [1]: 70% | pest or weed control at 250 g/ha [1]: 90% | pest or weed control at 30 g/ha [2]: 80% | pest or weed control at 250 g/ha [2]: 90% | plant injury at 30 g/ha [3]: 0% | plant injury at 250 g/ha [3]: 0% | pest or weed control at 30 g/ha [4]: 90% | pest or weed control at 250 g/ha [4]: 100% | plant injury at 30 g/ha [5]: 50% | plant injury at 250 g/ha [5]: 80% | pest or weed control at 30 g/ha [6]: 100% | pest or weed control at 250 g/ha [6]: 100% | pest or weed control at 30 g/ha [7]: 100% | pest or weed control at 250 g/ha [7]: 100% | plant injury at 30 g/ha [8]: 0% | plant injury at 250 g/ha [8]: 0% | pest or weed control at 30 g/ha [9]: 80% | pest or weed control at 250 g/ha [9]: 100% | pest or weed control at 30 g/ha [10]: 80% | pest or weed control at 250 g/ha [10]: 100% | pest or weed control at 30 g/ha [11]: 80% | pest or weed control at 250 g/ha [11]: 90% | plant injury at 30 g/ha [12]: 50% | pest or weed control at 30 g/ha [13]: 90% | pest or weed control at 250 g/ha [13]: 100%
